This note sets out measurements from patent US8394641B2, “Method of hydrolyzing an enzymatic substrate” (Advanced Liquid Logic Inc., priority 2009, dated 2013).

This test concerns the target T1, Krabbe assay (Homo sapiens, UniProt P54803).
T1 construct: DBS extracts were prepared from quality control (QC) dried blood spot samples; tissue CDC, Atlanta Ga; host or cells: dried blood spot extracts (pooled cord blood / leukoreduced red cells plus serum)
T1 sequence (P54803 43-685): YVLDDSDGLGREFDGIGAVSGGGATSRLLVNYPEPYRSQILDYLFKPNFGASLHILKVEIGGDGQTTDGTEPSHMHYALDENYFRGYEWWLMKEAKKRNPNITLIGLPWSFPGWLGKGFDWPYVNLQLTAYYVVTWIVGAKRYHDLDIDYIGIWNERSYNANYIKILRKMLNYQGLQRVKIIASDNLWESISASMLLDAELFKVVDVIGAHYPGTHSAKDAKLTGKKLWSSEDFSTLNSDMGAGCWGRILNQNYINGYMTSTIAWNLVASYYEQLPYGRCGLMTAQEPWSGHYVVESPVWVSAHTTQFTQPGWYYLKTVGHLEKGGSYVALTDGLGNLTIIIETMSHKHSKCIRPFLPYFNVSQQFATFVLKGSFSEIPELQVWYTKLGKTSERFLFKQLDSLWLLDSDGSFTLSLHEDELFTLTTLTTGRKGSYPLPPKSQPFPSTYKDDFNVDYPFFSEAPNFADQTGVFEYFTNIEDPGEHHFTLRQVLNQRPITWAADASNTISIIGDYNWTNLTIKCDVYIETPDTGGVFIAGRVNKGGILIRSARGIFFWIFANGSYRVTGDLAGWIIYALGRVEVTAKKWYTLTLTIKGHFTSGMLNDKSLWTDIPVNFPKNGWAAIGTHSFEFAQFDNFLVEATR
Nature of the test: Krabbe assay on bench, substrate hydrolysis with cyclodextrins, QC DBS extracts. The format is biochemical. To be noted: data not shown. On the procedure: To evaluate the efficacy of cyclodextrins in enhancing the hydrolysis of enzymatic substrates (4-MU substrates) used in NBS assays, DBS extracts were prepared from quality control (QC) dried blood spot samples (i.e., base pool (BP), low (L), medium (M) and high (H) activity samples). The QC samples were obtained from CDC, Atlanta Ga. The base pool (BP) QC sample was prepared from a pool of leukoreduced human red blood cells that was adjusted with serum to a hematocrit of 50%. The High (H) activity QC sample was prepared from pooled cord blood that was adjusted with serum to a hematocrit of 50%. The medium (M) activity QC sample was prepared by using 50% base pool (BP) and 50% high (H) activity sample. The low (L) activity QC sample was prepared by using 95% base pool (BP) and 5% high (H) activity sample. The BP sample is used as a control for hydrolysis non-specific to white blood cell lysosomal enzymes. The DBS extracts were analyzed using on-bench assay protocols for Fabry, Gaucher, Krabbe, and Pompe diseases. For each assay, on-chip reagent formulations were scaled up to bench volumes. Hydroxypropyl-β-cyclodextrin or methyl-β-cyclodextrin reagent stocks (300 mM) were prepared in appropriate assay buffers. […] Fluorescence was read at 360/460 nm at a gain of 75. For each assay, QC samples (BP, L, M and H) were analyzed in duplicate. […]

Turning to hydroxypropyl-β-cyclodextrin, the “effect on substrate hydrolysis in a Krabbe assay” value is listed as “inhibitory”.
For methyl-β-cyclodextrin the value was “inhibitory”.
